In test [1] the test system is patient-derived xenograft CRC cells. Briefly: subcutaneous patient-derived xenograft CRC tumour growth in NSG mice. The test is classed as in vivo. The settings on record: 0.5 mg kg-1 intraperitoneal. As for the experimental part:
B, Schematic representation of in vivo experimental scheme of non-infected, ADAR1^WT, ADAR1^KDA and ADAR1^KDB patient-derived xenograft CRC cells injected subcutaneously into flanks of NSG mice (n=10 mice per group; 2 tumours per mouse). Arrows represent days of treatment (0.5 mg kg-1 5-AZA-CdR by intraperitoneal injection or vehicle).
C, Tumour volume measured at the indicated time points. Arrows represent days of treatment. ADAR1^KDA 5-AZA-CdR (n=20 tumours) and ADAR1^KDB 5-AZA-CdR (n=18 tumours at day 12 and n=14 tumours at day15) compared with non-infected (NI) 5-AZA-CdR (n=19 tumours) cohort. Data are mean±s.e.m. ****P<0.0001, Tukey-corrected two-way ANOVA
D, Colorectal cancer tumours dissected from Vehicle and 5-AZA-CdR cohorts at day 14 post-treatment are depicted for each condition (n=5) (NI=non-infected)
E, Tumour weight for each group at the time of dissection (day 14 after treatment). Data are mean±s.d. ****P<0.0001, Tukey-corrected ordinary-one-way ANOVA.
Finally, we sought to investigate whether ADAR1 inhibition would synergize with epigenetic therapy to increase the anti-tumour response. […] To examine the potential synergy in vivo, we injected ADAR1^KDA/B or wildtype patient-derived xenograft CRC cells subcutaneously into immune-deficient NOD.Cg-Prkdc (NSG) mice, and treated the mice with 5-AZA-CdR or vehicle (PBS) (FIG. 12B and FIG. 13A). […]

Test [2] concerns patient-derived CRC cells. Briefly: in vitro sphere initiation assay followed by limiting dilution analysis (LDA). The test is classed as cell-based, human. The settings on record: ADAR1-depleted CRC cells treated with 5-AZA-CdR. As for the experimental part: B, The normalized percentage of reduction in sphere forming ability was calculated in each condition compared to Mock-treated.
One of the major challenges facing conventional chemotherapy is the persistence of cancer initiating cells (CICs), often resulting in relapse^38-40. We and others have previously shown that 5-AZA-CdR treatment can target colorectal cancer CICs by inducing the viral mimicry response^1,41. We therefore tested whether ADAR1^KD by itself or in combination with 5-AZA-CdR can decrease tumour initiation. To this end, we first employed an in vitro sphere initiation assay followed by limiting dilution analysis (LDA) using patient-derived CRC cells. […] In addition, we performed in vivo tumour initiation assays by injecting serially diluted patient-derived CRC cells into NSG immunodeficient mice and inspected tumour engraftment for up to 6 months after injection (FIG. 12F).

The test system of test [3] is MDA5. Briefly: MDA5-protection assay followed by RNA sequencing. The test is classed as cell-based, human. As for the experimental part:
A-C, Percentage of non-repeats and several families of Repetitive Elements in the total cytoplasmic fraction (‘Total CytoRNA’) and in the MDA5-protected fraction (‘MDA5-protected’) at the mock-treated baseline condition (A) and after 5-AZA-CdR treatment at 300 nM for 5 days, p<2.2e-16 (B). Treatment-induced immunogenic RNAs' refers to transcripts present in 5-AZA-CdR treated condition but not present in the baseline mock-treated condition (i.e. induced by the treatment), p<2.2e-16 (C). Each plot is the average percentage of two replicates. P-values represent the Fisher Exact test for enrichment of SINEs and depletion of non-repeats in immunogenic RNAs (5-AZA-CdR) and Treatment-induced immunogenic RNAs as compared to the MDA5-protected baseline immunogenic RNAs.
D-E, Counts of the expressed Alus in terms of the Log10 Fold change of their MDA5-protected expression over their Total CytoRNA expression. IR-Alus that are MDA5 dsRNA agonists have positive values on the x-axis. […] The color code represents Alus making Inverted Repeats pairs (gray) and Non-IR pairs (black) for Baseline immunogenic RNAs (n=187 Non-IR Alus and 1,602 IR-Alus) (D) and for the Treatment-induced immunogenic RNAs (n=992 Non-IR Alus and 5,199 IR-Alus) (E).
A, Venn-diagram showing the IR-Alu pairs at the Baseline (n=1,040), Immunogenic (5-AZA-CdR) (n=4,482) and Treatment-induced (n=3,687) conditions.
Viral mimicry response to epigenetic therapy is dependent on activation of the MDA5 pattern recognition receptor by endogenous dsRNAs^1,6,8. Therefore, to directly identify drug-induced immunogenic retroelements, we performed an MDA5-protection assay^19, followed by RNA sequencing. […] In contrast, only 1.71% of MDA5-protected RNAs in mock-treated samples were LTRs and 6.40% were LINEs (FIG. 2A). For DNMTi-treated samples, only 1.81% were LTRs and 7.56% were LINEs (FIG. 2B).
Then, to identify the immunogenic retroelements induced only by DNMTi treatment (“Treatment-Induced immunogenic RNAs”), we excluded those that were expressed in both the mock- and DNMTi-treated samples (FIG. 3A). Alu retroelements represented 88.72% of all MDA5-protected RNAs present only in DNMTi treated samples (“Treatment-Induced immunogenic RNAs”) (FIG. 2C). Treatment-induced immunogenic RNAs also included non-repeats (5.15%), LINEs (3.86%) and LTRs elements (1.37%) (FIG. 2C). Overall, our results reveal that while many dsRNA species are induced after DNMTi, Alu elements, but not LTRs/ERVs as previously assumed^1,2,4-6,20, are the major source of immunogenic dsRNA induced upon epigenetic therapy.
To uncover the molecular mechanisms of how repetitive elements generate immunogenic dsRNA, we examined all repeats in MDA5-protected transcripts and searched for repeat pairs within a 3 Kb window. […] Moreover, MDA5-protected RNA contained higher levels of IR-Alus compared to non-IR (direct repeat) Alus (FIG. 2D-E). The expression of baseline IR-Alus was maintained but not enhanced after 5-AZA-CdR treatment (FIG. 2D, FIG. 3D) while treatment-induced IR-Alu hybrids became highly expressed in the MDA5-protected RNA only after treatment with 5-AZA-CdR (FIG. 2E, FIG. 3E). […] Moreover, the majority of IR-Alu pairs were unidirectionally transcribed either in the sense (both repeats in the positive strand: “+/+”) or antisense (both repeats in the negative strand: “−/−”) direction in both baseline (FIG. 2H) and treatment-induced dsRNA (FIG. 2I).

Where [4] appears, read: MDA5-protected RNAs present only in DNMTi treated samples.
Setting [5] is: MDA5-protected, induced by DNMTi.

The text below walks through data of patent publication US20230265524A1, “IMMUNOGENIC RETROELEMENTS AND THEIR USE IN CANCER THERAPY” (UNIVERSITY HEALTH NETWORK, priority 2020, published 2023).

As for `Nc1ncn([C@H]2C[C@H](O)[C@@H](CO)O2)c(=O)n1` [5-AZA-CdR], in test [1] (ADAR1^KDA/B cells), the anti-tumour activity entry is “remarkable anti-tumour activity”. For the same molecule, in test [1] (wildtype cells), the anti-tumour activity result is on record as “very limited anti-tumour activity”. Moreover, in test [2], the spheroid forming potential result is “reduced the spheroid forming potential”. For the same molecule, the “number of IR-Alu pairs, Immunogenic (5-AZA-CdR) condition” value in test [3] (Baseline n=1,040) is reported as 4,482. Also, the “LTRs in MDA5-protected RNAs” value in test [3] (DNMTi-treated samples, mock-treated 1.71%) is on record as 1.81%. Moreover, the “LINEs in MDA5-protected RNAs” value in test [3] (DNMTi-treated samples, mock-treated 6.40%) was found to be 7.56%. Besides, the “Alus in the MDA5-protected RNA” value in test [3] (Immunogenic RNAs (5-AZA-CdR), 300 nM for 5 days, mock-treated 53.03%) was 72.33%. Besides, in test [3] (setting [4]), the “Alu retroelements among Treatment-Induced immunogenic RNAs” value was 88.72%, the “LINEs among Treatment-induced immunogenic RNAs” value was found to be 3.86%, the “LTRs elements among Treatment-induced immunogenic RNAs” value turned out to be 1.37% and the “non-repeats among Treatment-induced immunogenic RNAs” value was found to be 5.15%. Besides, in test [3] (setting [5]), the “treatment-induced IR-Alu pairs within intergenic regions” value was found to be 16% and the “treatment-induced IR-Alu pairs within introns” value worked out at 70%. The “number of IR-Alu pairs, Treatment-induced condition” value in test [3] (present after 5-AZA-CdR, not at baseline) is recorded as 3,687.
